Measured values: patent publication US20250270159A1, “1-(CYCLOBUTANEMETHYLIDENE)-2, 4, 5-TRIMETHOXYBENZENE COMPOUND AND PREPARATION METHOD AND USE THEREOF” (CHENGDU XINRUI TAIKANG TECHNOLOGY CO., LTD., priority 2023, published 2025)

Columns and labels:
IL-6 = IL-6 in cerebral cortex of TBI rats; assay type: in vivo, SD rats; conditions: 30 mg/kg ip 2 h after TBI; 24 h after administration; FIG. 3
Description: The experimental grouping and drug administration plan were as follows. • Sham operation group (Group P): saline was given with the same volume as in the CTMB group; • Model group (T group): a blank emulsion was given with the same volume as in the CTMB group; • Medium dose group (Group M): a dose of 30 mg/kg of CTMB emulsion injection was given.
The experimental grouping and drug administration plan were the same as the test 3. After 2 h of the TBI modeling, different groups of rats were administered intraperitoneally. After 24 h of the administration, the rats were deeply anesthetized, the head was severed and the brain was removed, about 60-120 mg of hemisphere cortex was taken out from the hemisphere on the blood side, 10 times the volume of ice-cold centrifugal buffer used for biochemical assays was added, homogenization was carried out in an ice bath for 10 min, and centrifugation was carried out at 4° C. and 14000 rpm/min for 30 min. The supernatant was extracted, and inflammatory factors IL-1, IL-6, and TNF-α were tested according to the instructions of IL-1, IL-6, and TNF-α assay kits, respectively.

[1] = system: rat model of lithium-pilocarpine-induced epilepsy; assay: Survival of SE model rats after drug intervention in the acute phase; assay type: in vivo, Sprague Dawley (SD) rats; conditions: 50 mg/kg ip; Logrank test P<0.05 vs model; FIG. 1
Description: Methylscopolamine bromide, lithium chloride, and pilocarpine were weighed, and experimental drugs were dissolved to working concentrations (100 mg/mL of lithium chloride solution, 1 mg/mLof methylscopolamine bromide solution, and 20 mg/mL of pilocarpine solution) with 0.9% saline. Rats were injected intraperitoneally with lithium chloride (a dose of 127 mg/kg), and 18-20 h later, scopolamine methylbromide (a dose of 1 mg/kg) was injected intraperitoneally. […] Thereafter, an additional dose of 10 mg/kg pilocarpine was injected intraperitoneally every 30 min until the onset of a grade IV or higher status epilepticus (SE)-like seizure without significant intermittent intervals, with a maximum dose of 60 mg/kg.
The rats with successful modeling were randomly divided into three groups, namely a model group, a CTMB group, and a sodium valproate (VPA) group. Administration was carried out after 1 h of SE onset, with a blank emulsion given by intraperitoneal injection in the model group, a CTMB emulsion injection at a dose of 50 mg/kg given by intraperitoneal injection in the CTMB group, and sodium valproate at a dose of 300 mg/kg given by oral gavage in the VPA group. […]
The differences between the survival curves of the rats in each group were analyzed by a Logrank test.

[2] = system: ischemic stroke induced by the filament technique in rats; assay: Long-term ischemic stroke (MCAO), neurological deficit score (mNSS); assay type: in vivo
Description: The rats were randomly divided into a sham operation group (Sham group, given a blank emulsion with a volume equal to that of the high-dose CTMB group), a model group (Vehicle group, given a blank emulsion with a volume equal to that of the high-dose CTMB group), a low-dose CTMB group (CTMB-L group, 10 mg/kg), a high-dose CTMB group (CTMB-H group, 20 mg/kg), and an edaravone dexborneol injection concentrated solution group (EDB group, commercially available, 3 mg/kg). 10 rats were included in each group, which were administered by intraperitoneal injection. It should be noted that in the experiment, the mode of administration for rats was intraperitoneal injection, and a ratio of the effective dose of CTMB, the active ingredient in the emulsion injection, to the unit mass of the human body was within a range of 0.2 mg-4.0 mg/kg, which referred to the ratio of the effective dose of CTMB, the active ingredient in the emulsion injection, to the unit mass of the human body during intravenous infusion, which was extrapolated from the effective dose of the rats. Considering the different bioavailability, peak concentration, and peak time of the drug due to different species and different modes of administration, the effective dose of the active ingredient CTMB in the emulsion injection to the unit mass of human body was finally determined to be 0.2 mg-4.0 mg/kg through conversion.
The rats were fasted for 12 h before procedure, and the rats were anesthetized with 10% chloral hydrate (350 mg/kg, i.p.). The rats were fixed in the supine position, and the body temperature was maintained at about 37° C. For neck preparation, a median neck incision was made, the muscle and fascia were separated along the inner edge of the sternocleidomastoid muscle to expose the right side, the common carotid artery (CCA), external carotid artery (ECA), and internal carotid artery (ICA) were separated bluntly, and the lines were disposed of proximally in the CCA proximal end, ICA, and ECA for backup. The CCA proximal end and ECA were ligatured, and an arterial clip was used to temporarily close the ICA, then a small hole was poked at a position of CCA having about 4 mm from the bifurcation with a needle. The filament was inserted into the ICA through the CCA, the arterial clipped on ICA was loosened, and the filament was slowly advanced. When the mark on the filament reached the bifurcation and a slight resistance was felt, the thin wire at ICA was tightened, and saline was used to clean the wound and then suture was performed. The sham procedure was the same as the experimental group except that no filament was inserted. After anesthesia, the rats were raised normally.
Experimental materials, groups (n=10-15), modeling manner, and scoring criteria were the same as the acute phase of treatment. After 2 h of modeling by the filament technique, the drugs were immediately administered according to the grouped administration plan, and thereafter the drugs continued to be administered once a day for 14 days, and modified mNSS score was performed on days 1, 4, 7, and 14.

[3] = system: neurons in the substantia nigra region of the midbrain of PD mice; assay: Niehl's staining, number of neuronal Niehl's bodies in substantia nigra of PD mice; assay type: in vivo, C57 mice; conditions: Group D, CTMB 20 mg/kg ip, after 4 weeks of administration
Description: The mice were randomly divided into a sham operation group (group S, given a blank emulsion with a volume equal to that of the administered group), a model group (group M, given a blank emulsion with a volume equal to that of the administered group), a CTMB group (20 mg/kg, group D), and a levodopa group (levodopa: benserazide hydrochloride=4:1, 12 mg/kg, group L), each group included 10-12 mice, and all of them were administered intraperitoneally.
After completing the evaluation of motor function after 4 weeks of drug administration, the mice were deeply anesthetized, perfused with 20 mL of saline and 20 mL of 4% paraformaldehyde via the heart, and the brains were rapidly severed and extracted from the head, which were then preserved and fixed in 4% paraformaldehyde for 72 h after removal, and then embedded with paraffin to prepare the slices with a thickness of 4 μm for subsequent pathological and histological studies.
Niehl's staining was used to identify Niehl's bodies in neuronal cells.

[4] = CTMB-H 20 mg/kg ip once a day for 14 days
[5] = CTMB-L 10 mg/kg ip once a day for 14 days

COc1cc(OC)c(OC)cc1C=C1CCC1 [CTMB, 1-(cyclobutylidenemethyl)-2,4,5-trimethoxybenzene]
content of IL-6 in cerebral cortex tissue (IL-6): significantly reduced
survival rate of the SE model rats [1]: significantly increases the survival rate
toxic side effects associated with administration ([2]; 10 and 20 mg/kg ip once a day for 14 days): No toxic side effects
mNSS score, Day 1 [2, 4]: 5.69 ± 2.13^##, **
mNSS score, Day 4 [2, 4]: 3.75 ± 1.67^##, **
mNSS score, Day 7 [2, 4]: 2.83 ± 1.17^##, *
mNSS score, Day 14 [2, 4]: 2.45 ± 1.36^##, *
mNSS score, Day 1 [2, 5]: 6.45 ± 2.37^##, *
mNSS score, Day 4 [2, 5]: 3.65 ± 1.29^##, **
mNSS score, Day 7 [2, 5]: 3.38 ± 0.83
mNSS score, Day 14 [2, 5]: 2.94 ± 1.56
Number of Niehl's bodies [3]: 55.5 ± 4.0
